Like-named read-outs stand apart in the source and are kept apart here.
Target: human recombinant ATX (Homo sapiens, UniProt Q13822)
Assay: Autotaxin (ATX) activity Quanta Red assay
Type: biochemical
How it was run: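 Recombinant human ATX reaction stopped after 2 h with Quanta Red stop solution; fluorescence read at […]. Controls with DMSO, with and without ATX; IC50 in duplicate.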

[1] = read-out: Activity (ATX activity, Quanta Red assay; IC50)
[2] = Table 2: additional compounds tested for ATX activity (Quanta Red Assay), read-out: Activity

| SMILES | IC50 [1] [nM] | further results |
| --- | --- | --- |
| O=C(CCc1nc2cccnc2n1Cc1ccc(F)c(F)c1)N[C@H](Cc1ccccc1)C(=O)O [Example 198, (R)-2-{3-[3-(3,4-Difluoro-benzyl)-3H-imidazo[4,5-b]pyridin-2-yl]-propionylamino}-3-phenyl-propionic acid] | 37 |  |
| C[C@H](NC(=O)CCc1nc2cccnc2n1Cc1ccc(F)c(F)c1)c1ccc(N2CCN(C)CC2)cc1 [Example 182] | 8 |  |
| O=C(CCc1nc2cccnc2n1Cc1ccc(OC(F)(F)F)cc1)Nc1nncs1 [Example 73, N-[1,3,4]Thiadiazol-2-yl-3-[3-(4-trifluoromethoxy-benzyl)-3H-imidazo[4,5-b]pyridin-2-yl]-propionamide] | 267 |  |
| C[C@@H](NC(=O)CCc1nc2cccnc2n1Cc1ccc(OC(F)(F)F)cc1)c1ccc(Cl)cc1 [Example 49, N-[(R)-1-(4-Chloro-phenyl)-ethyl]-3-[3-(4-trifluoromethoxy-benzyl)-3H-imidazo[4,5-b]pyridin-2-yl]-propionamide] | 21 |  |
| O=C(CCc1nc2cccnc2n1Cc1ccc(F)c(F)c1)NC(CO)c1ccc(F)cc1 (centres unmarked) [Example 50, 3-[3-(3,4-Difluoro-benzyl)-3H-imidazo[4,5-b]pyridin-2-yl]-N-[1-(4-fluoro-phenyl)-2-hydroxy-ethyl]-propionamide] | 22 |  |
| COc1ccc(Cn2c(CCC(=O)NC(C)C)nc3cccnc32)cc1 [Example 113, N-Isopropyl-3-[3-(4-methoxy-benzyl)-3H-imidazo[4,5-b]pyridin-2-yl]-propionamide] | 1500 |  |
| C[C@@H](c1ccc(F)cc1)n1c(CCC(=O)N[C@H](Cc2ccccc2)C(=O)O)nc2cccnc21 [Example 201, (R)-2-(3-{3-[(S)-1-(4-Fluoro-phenyl)-ethyl]-3H-imidazo[4,5-b]pyridin-2-yl}-propionylamino)-3-phenyl-propionic acid] | 598 |  |
| Cc1cnc2c(c1)nc(CCC(=O)N[C@@H](C)c1ccc(N3CCN[C@@H](C)C3)cc1)n2Cc1ccc(OC(F)(F)F)cc1 [Example 192, N-{(S)-1-[4-((S)-3-Methyl-piperazin-1-yl)-phenyl]-ethyl}-3-[6-methyl-3-(4-trifluoromethoxy-benzyl)-3H-imidazo[4,5-b]pyridin-2-yl]-propionamide] | 56 |  |
| C[C@H](NC(=O)CCc1cc2cc(F)cnc2n1Cc1ccc(OC(F)(F)F)cc1)c1ccc(F)cc1 [Example 139, N-[(S)-1-(4-Fluoro-phenyl)-ethyl]-3-[5-fluoro-1-(4-trifluoromethoxy-benzyl)-1H-pyrrolo[2,3-b]pyridin-2-yl]-propionamide] | 13 |  |
| C[C@H](NC(=O)CCc1nc2cccnc2n1Cc1ccc(OC(F)(F)F)cc1)c1ccc(N2CC[C@@H](N(C)C)C2)cc1 [Example 168, N-{(S)-1-[4-((R)-3-Dimethylamino-pyrrolidin-1-yl)-phenyl]-ethyl}-3-[3-(4-trifluoromethoxy-benzyl)-3H-imidazo[4,5-b]pyridin-2-yl]-propionamide] | 1 |  |
| O=C(CCc1nc2cccnc2n1Cc1ccc(F)c(F)c1)N[C@@H]1c2ccccc2C[C@@H]1O [Example 46, 3-[3-(3,4-Difluoro-benzyl)-3H-imidazo[4,5-b]pyridin-2-yl]-N-((1R,2S)-2-hydroxy-indan-1-yl)-propionamide] | 18 |  |
| C[C@H](NC(=O)NCc1nc2cccnc2n1Cc1ccc(F)cc1)c1ccc(Cl)cc1 [Example 157, 1-[(S)-1-(4-Chloro-phenyl)-ethyl]-3-[3-(4-fluoro-benzyl)-3H-imidazo[4,5-b]pyridin-2-ylmethyl]-urea] |  | IC50 (human recombinant ATX 0.8 μg/mL, 2 hours at room temperature, IC50 determined in duplicate, read-out: Activity (ATX activity, Quanta Red assay; IC50)): 10 nM |
| CC(C)COc1ccc(Cn2c(CCC(=O)N[C@@H](C)c3ccc(F)cc3)nc3cccnc32)cc1 [Example 156, N—[(S)-1-(4-fluoro-phenyl)-ethyl]-3-[3-(4-isobutoxy-benzyl)-3H-imidazo[4,5-b]pyridin-2-yl]-propionamide] | 704 |  |
| O=C(CCc1nc2cccnc2n1Cc1ccccc1)NCc1ccc(Cl)cc1 [Example 217, 3-(3-Benzyl-3H-imidazo[4,5-b]pyridin-2-yl)-N-(4-chloro-benzyl)-propionamide] |  | IC50 [2]: 29 nM |
| C[C@H](NC(=O)CCc1cc2cc(F)cnc2n1Cc1ccc(Cl)cc1)c1ccc(F)cc1 [Example 141, 3-[1-(4-Chloro-benzyl)-5-fluoro-1H-pyrrolo[2,3-b]byridin-2-yl]-N-[(S)-1-(4-fluoro-phenyl)-ethyl]-propionamide] | 14 |  |
| COc1ccc(Cn2c(CCC(=O)N[C@H](C)c3ccccc3)nc3cccnc32)cc1 [Example 112, 3-[3-(4-Methoxy-benzyl)-3H-imidazo[4,5-b]pyridin-2-yl]-N-((R)-1-phenyl-ethyl)-propionamide] | 1060 |  |
| COc1ccc(Cn2c(CCC(=O)NCc3ccc(Cl)cc3)nc3cccnc32)cc1 [Example 218, N-(4-Chloro-benzyl)-3-[3-(4-methoxy-benzyl)-3H-imidazo[4,5-b]pyridin-2-yl]-propionamide] |  | IC50 [2]: 23 nM |
| COc1ccc(Cn2c(CCC(=O)N(C)Cc3ccccc3)nc3cccnc32)cc1 [Example 102] | 568 |  |
| C[C@H](NC(=O)CCc1nc2cccnc2n1Cc1ccc(F)cc1)c1ccc(Br)cc1 [Example 83, N—[(S)-1-(4-bromo-phenyl)-ethyl]-3-[3-(4-fluoro-benzyl)-3H-imidazo[4,5-b]pyridin-2-yl]-propionamide] | 2 |  |
| O=C(CCc1nc2cccnc2n1Cc1ccc(F)c(F)c1)NCc1ccncc1 [Example 82, 3-[3-(3,4-Difluoro-benzyl)-3H-imidazo[4,5-b]pyridin-2-yl]-N-pyridin-4-ylmethyl-propionamide] | 987 |  |
| O=C(CCc1nc2ccncc2n1Cc1ccc(OC(F)(F)F)cc1)NC(CO)c1ccc(OC(F)(F)F)cc1 (centres unmarked) [Example 126, N-[2-Hydroxy-1-(4-trifluoromethoxy-phenyl)-ethyl]-3-[3-(4-trifluoromethoxy-benzyl)-3H-imidazo[4,5-c]pyridin-2-yl]-propionamide] | 11 |  |
| O=C(CCc1nc2cccnc2n1Cc1ccc(F)cc1)N[C@@H](CO)c1ccccc1 [Example 28, 3-[3-(4-Fluoro-benzyl)-3H-imidazo[4,5-b]pyridin-2-yl]-N-((R)-2-hydroxy-1-phenyl-ethyl)-propionamide] | 5 |  |
| CC[C@H]1CN(c2ccc([C@H](C)NC(=O)CCc3nc4cccnc4n3Cc3ccc(OC(F)(F)F)cc3)cc2)CCN1 [Example 172, N-{(S)-1-[4-((S)-3-Ethyl-piperazin-1-yl)-phenyl]-ethyl}-3-[3-(4-trifluoromethoxy-benzyl)-3H-imidazo[4,5-b]pyridin-2-yl]-propionamide] | 2 |  |
| O=C(CCc1nc2cccnc2n1Cc1ccc(OC(F)(F)F)cc1)NC[C@H](O)c1ccccc1 [Example 37, N-((R)-2-Hydroxy-2-phenyl-ethyl)-3-[3-(4-trifluoromethoxy-benzyl)-3H-imidazo[4,5-b]pyridin-2-yl]-propionamide] | 7 |  |
| C[C@H](NC(=O)CCc1nc2cccnc2n1Cc1ccc(F)c(F)c1)c1ccc(N2CCN[C@@H](C)C2)cc1 [Example 184, 3-[3-(3,4-Difluoro-benzyl)-3H-imidazo[4,5-b]pyridin-2-yl]-N-{(S)-1-[4-((S)-3-methyl-piperazin-1-yl)-phenyl]-ethyl}-propionamide] | 12 |  |
| C[C@H](NC(=O)CCc1nc2cc(Br)cnc2n1Cc1ccc(OC(F)(F)F)cc1)c1ccc(Cl)cc1 [Example 61] | 100 |  |
